Type in all cases: cell-based, mouse
Data set [1] deals with C2C12 myoblasts. In words: Myogenesis, myotube formation and morphology without dexamethasone. To be noted: for myotube formation and overall myotube diameters: 10 μM ebselen, 5 mM LiCl or 1.25 μM BIO, 24 hours. Here is the method:
(§1) Then, the myoblasts were treated with a differentiation medium (DMEM supplemented with 2% horse serum and PenStrep) for 72 hours so that the myoblasts were induced to differentiate into myotubes.
In differentiation cultures, myotubes were visualized by treatment with 50 nM MitoTracker Red CMX-Ros and […] DAPI in a differentiation medium at 37° C. for 30 minutes and imaged using a fluorescence microscope (Leica DMI3000B, Germany) as described above.
(§2) To evaluate myotube formation and atrophy, five microscopic fields of H&E-stained or MitoTracker Red CMX-Ros-stained cultures were randomly captured, and multinuclear myotube formation and diameters were calculated. Myotubes were designated as multinucleated cells containing three or more nuclei, and the diameters of myotubes were calculated using ImageJ 1.48 software (National Institutes of Health, Bethesda, MD, USA).

In data set [2] the test system is Atrogin-1, MuRF-1, FoxO3a expression. The data set is described as follows: qPCR of atrophy genes in dexamethasone-treated myotubes. Here is the method: (§3) C2C12 myoblasts were seeded onto 6-well plates in a growth medium (GM). After reaching confluence, the cultures were treated with DM for 72 hours, and myotube atrophy was induced with DM containing 10 μM dexamethasone for 24 hours in the presence or absence of the drug of interest. Myotubes were visualized using hematoxylin and eosin staining according to a previously published protocol, and imaged with an optical microscope (Olympus CKX41, Japan). A myotube distribution was calculated by dividing the number of myotubes in each group by the total number of myotubes per image.
(§4) The transcription level of the gene was measured using a StepOnePlus Real Time PCR System (manufactured by Applied Biosystems, UK). cDNA was reverse transcribed from total RNA using an AccuPower RT PreMix (manufactured by Bioneer, USA). Real-time PCR was performed by modifying the manufacturer's instructions as follows.
(§5) PCR was performed three times using a total of 20 μL of 2×Power SYBR Green PCR Master Mix containing 200 nM of specific primers and 1 μL of cDNA. 10 minutes of incubation was performed at 95° C. prior to PCR amplification. The amplification consisted of 40 cycles of denaturation (for 15 seconds at 95° C.), annealing (for 1 minute at 60° C.), and extension (for 20 seconds at 72° C.). Extension and fluorescence detection were performed at 72° C. after each cycle. After the final cycle, melting point analysis was performed using continuous fluorescence detection on samples at a temperature in a range of 60° C. to 95° C. Specific cDNA samples were included in each run and used as a reference for comparison between runs. Expression levels of GAPDH were used for normalization and expression levels of all other genes were calculated.
A general note: Real-time PCR tracks product formation cycle by cycle.

In data set [3] the test system is C2C12 myoblasts. The data set is described as follows: MTT assay, myoblast viability. To be noted: for concentration at which cytotoxicity was not observed: MTT. The protocol:
C2C12 mouse skeletal muscle progenitor cells (myoblasts) were grown in a growth medium including Dulbecco's Modified Eagle's Medium (DMEM) supplemented with 10% fetal bovine serum (FBS), 50 units/mL if penicillin, and […] of streptomycin (PenStrep).
(§6) Cell proliferation was evaluated through MTT (3-(4,5-dimethylthiazol-2-yl)-2,5-diphenyltetrazolium bromide) assay as described above. Myoblasts were seeded 3 times into 96-well plates at a density of 2×10^3 cells per well. A compound to be tested was added, followed by 48 hours of incubation, the medium was changed to an MTT solution (0.5 mg/mL, final concentration), and the plate was incubated in an incubator at 37° C., 5%, CO2 conditions. After 60 minutes of incubation, 50 μL of DMSO was added. Optical density in each well was measured at 570 nm using a microplate reader (VersaMax, Molecular Devices, USA). For myotube analysis, myoblasts were differentiated for […], the medium was supplemented with the compound of interest, 48 hours of incubation was additionally performed, and the cultures were assayed.

Data set [4] relates to C2C12 myotubes. The data set is described as follows: Dexamethasone-induced myotube atrophy, H&E morphology. Conditions: co-treatment with 10 μM dexamethasone; for average myotube diameter: 24 hours. The protocol:
as §3, §2

Data set [5] concerns C2C12 myotubes. In words: MTT assay and microscopy, myotube viability. The protocol:
as §1, §6
In general terms: Formazan colour is commonly taken as a measure of viable cells.

Data set [6] deals with C2C12 myotubes. In words: SUnSET assay of protein synthesis. Conditions: alone or with dexamethasone. Here is the method: Surface sensing translation (SUnSET) assay was performed as described above. Briefly, 1 μg/mL puromycin was added to the culture and the harvest was lysed after 10 minutes. For immunoblotting, the myotube extract was treated with anti-puromycin 12D10 antibody (MABE343; Millipore).

Data set [7] has as its system Pax7, Myf5, MyoG, Myh2 expression. The data set is described as follows: qPCR of myogenic markers in differentiating myoblasts. To be noted: differentiation medium, 100 mM myo-inositol. Here is the method: as §4, §5
Setting [8] is: 100 mM myo-inositol, no dexamethasone.

6-Bromoindirubin-3-oxime [BIO]: the “myotube formation and overall myotube diameters” value in the data set on C2C12 myoblasts [1] is “inhibited myotube formation”.

With `CC(Oc1ccc(O)cc1)(P(=O)(O)O)P(=O)(O)O` [L-690,330, [1-(4-hydroxyphenoxy)-1-phosphonoethyl]phosphonic acid], in data set [2] (10 μM dexamethasone), the FoxO3a expression entry is reported as “inhibited the up-regulation”. Further, the “concentration at which cytotoxicity was not observed” value in the data set on C2C12 myoblasts [3] is recorded as “up to 50 μM”. In the data set with C2C12 myotubes [4], the “proportion of larger diameter myotubes” value was “larger diameter myotubes were observed” and the average myotube diameter entry is “increased”.

Usually IC50 stands for the midpoint of a concentration-inhibition curve. On to `[Cl-].[Li+]` [LiCl], for which the FoxO3a expression result in data set [2] (10 μM dexamethasone) is reported as “inhibited the up-regulation”. The “number of observable myotubes” value in the data set on C2C12 myotubes [5] (microscopic observation, 50 mM LiCl) is reported as “reduced”. In addition, in the data set with C2C12 myoblasts [3] (48 hours, read-out: IC50, MTT assessment), the IC50 amounted to 19.9 mM. Also, the “concentration at which cytotoxicity was not observed” value in the data set on C2C12 myoblasts [3] is reported as “up to 5 mM”. Besides, the “myotube formation and overall myotube diameters” value in the data set on C2C12 myoblasts [1] is “enhanced myotube formation and increased overall myotube diameters”. Besides, in the data set on C2C12 myotubes [4], the “proportion of larger diameter myotubes” value is “larger diameter myotubes were observed” and the average myotube diameter entry is on record as “increased”.

On to `O=C1c2ccccc2[Se](=O)N1c1ccccc1` (centres unmarked) [ebselen oxide], for which the “Atrogin-1 and FoxO3a expression” value in data set [2] (10 μM dexamethasone 24 hours) is given as “inhibited the expression”.

As for `O[C@H]1[C@H](O)[C@@H](O)[C@H](O)[C@@H](O)[C@H]1O` [myo-inositol], the “expression of atrogin-1, MuRF-1 and FoxO3a” value in data set [2] (10 μM dexamethasone, 100 mM myo-inositol) is “further increased”. The cytotoxicity result in the data set on C2C12 myotubes [5] (myotubes, 500 mM, 48 hours) was “significant cytotoxicity”. For the same compound, the “concentration without cytotoxicity / effect on cell viability” value in the data set on C2C12 myotubes [5] (myotubes, MTT, 48 hours) is given as “below 250 mM”. The protein synthesis entry with C2C12 myotubes [6] is listed as “decreased”. In the data set on C2C12 myoblasts [1] (setting [8]), the average myotube diameter result is listed as “decreased” and the average myotube length result is given as “decreased”. For the same compound, the myotube morphology entry in the data set on C2C12 myoblasts [1] (100 mM, 48 hours, H&E) is “induced shortened and narrower myotubes”. Further, the “number of immature myotubes” value in the data set with C2C12 myoblasts [1] (DM with 100 mM myo-inositol, 48 hours) is listed as “reduced”. The “proportion of larger diameter myotubes” value with C2C12 myoblasts [1] (no dexamethasone) is listed as “reduction”. Besides, in the data set on C2C12 myotubes [4], the myotube length entry is “significantly reduced” and the average myotube diameter result is “significantly reduced”. In addition, in data set [7], the “expression of MyoG and Myh2” value is listed as “reduced”; the “expression of Pax7 and Myf5” value was “increased”.

(Values after patent US11878003B2, “Composition comprising organoselenium compound for treatment of skeletal muscle atrophy” (Gwangju Institute of Science and Technology, priority 2021, dated 2024).)
